What is called MIC is the smallest concentration in the dilution series that meets the test's criterion for growth inhibition. Low values mean a more susceptible organism, high ones a less susceptible organism. As usually defined, the LD50 is the dose at which mortality reaches 50%. A low value points to a more toxic substance. What is called ED50 is the midpoint of the dose-response relation.

Series [1] relates to Pseudomonas aeruginosa IFO3445. Briefly: Antibacterial activity in vitro, agar plate dilution method (MIC). Conditions: Mueller Hinton agar, 10^6 cells/ml, 37° C., 20 hours. It is filed as cell-based. How it is done: (§1) Antibacterial activity in vitro was determined in accordance with the agar plate dilution method. A platinum loop each of test bacteria (10^6 cells/ml), cultured in Mueller Hinton broth, was inoculated on Mueller Hinton agar plates which contained test compounds at various concentrations. After cultivating at 37° C. for 20 hours, the minimum inhibitory concentration (MIC μg/ml) was determined.

Series [2] concerns Klebsiella pneumoniae IFO3317. The description is as above. The series is classed as cell-based. Conditions: Mueller Hinton agar, 10^6 cells/ml, 37° C., 20 hours. How it is done: as §1
The test system of a further series is Escherichia coli 67. The description is as above. It is filed as cell-based. Conditions: Mueller Hinton agar, 10^6 cells/ml, 37° C., 20 hours. How it is done:
as §1

Series [3] concerns Serratia marcescens IFO3759. The description is as above. The series is classed as cell-based. Conditions: Mueller Hinton agar, 10^6 cells/ml, 37° C., 20 hours. How it is done: as §1
For series [4], the system named is Staphylococcus aureus Smith. The description is as above. The series is classed as cell-based. Conditions: Mueller Hinton agar, 10^6 cells/ml, 37° C., 20 hours. How it is done: as §1
A short description of another series: LD50, Probit method. Conditions: in vivo, iv. How it is done: Next, LD50 of representative examples of the compounds of the present invention is shown in Table 3 wherein LD50 was determined in accordance with the Probit method.
Another series has as its system Serratia marcescens 274. As to the kind of experiment: Protection ability against systemic infection. The series is classed as in vivo, ICR mice. Conditions: in Mus musculus, iv, 168 h, Table 2-b, i.p. infection, i.v. compound 1 hour later, survival at 1 week, read-out: ED50. How it is done:
Protection ability against systemic infection was determined as follows. An aqueous suspension of test bacteria was intraperitoneally injected into 10 four week old ICR mice. One hour after the infection, test compounds were intravenously administered. The number of surviving mice was counted 1 week after injection to determine the dose at which 50% of the test animals were alive (ED50 :mg/kg).

≈ marks a conversion by molar mass, not a printed value. A value given as a limit tells only on which side of the number the result lay.

For `Cc1cc(SCC2=C(C(=O)O)N3C(=O)[C@@H](NC(=O)C(NC(=O)c4ccc(O)c(O)c4)c4csc(N)n4)[C@H]3SC2)n2nc(C(=O)O)nc2n1` (stereo partly drawn) [Compound 17, (6R,7R)-7-[2-(2-amino-4-thiazolyl)-2-(3,4-dihydroxybenzoylamino)acetamido]-3-[(2-carboxy-5-methyl-s-triazolo [1,5-a]pyrimidin-7-yl)thiomethyl]-8-oxo-5-thia-1-azabicyclo[4.2.0]oct-2-ene-2-carboxylic acid], the MIC in series [1] is 1.56 µg/mL (≈ 2.19 µM); in series [2], less than 0.05 µg/mL; against Escherichia coli 67 it was less than 0.05 µg/mL; in series [3] it was less than 0.05 µg/mL; in series [4], 3.13 µg/mL (≈ 4.39 µM).

Consider `Cc1cc(SCC2=C(C(=O)O)N3C(=O)[C@@H](NC(=O)/C(=N\OC(C(=O)O)c4cc(O)c(O)c(O)c4)c4csc(N)n4)[C@H]3SC2)n2nc(C(=O)O)nc2n1` (stereo partly drawn) [Compound 12, (6R,7R)-7-[2-(2-amino-4-thiazolyl)-2-[Z-[carboxy(3,4,5-trihydroxyphenyl)-methyl]oxyimino]acetamido]-3-[(2-carboxy-5-methyl-s-triazolo[l,5-a]pyrimidin-7-yl)thiomethyl]-8-oxo-5-thia-l-azabicyclo [4 2.0]oct-2-ene-2-carboxylic acid], for which the MIC was 6.25 µg/mL (≈ 8.08 µM) in series [1], less than 0.05 µg/mL in series [2], 1.1 µg/mL (≈ 1.42 µM) against Escherichia coli 67 and 0.78 µg/mL (≈ 1.01 µM) in series [4].

Turning to `Cc1cc(SCC2=C(C(=O)O)N3C(=O)[C@@H](NC(=O)/C(=N\OC(=O)c4cc(O)c(O)c(O)c4)c4csc(N)n4)[C@H]3SC2)n2nc(C(=O)O)nc2n1` [Compound 1, (6R,7R)-7-[2-(2-amino-4-thiazolyl)-2-[Z-(3,4,5-trihydroxybenzoyl)oxyimino]acetamido]-3-[(2-carboxy-5-methyl-s-triazolo[l,5-a]-pyrimidin-7-yl)thiomethyl]-8-oxo-5-thia-l-azabicyclo [4.2.0]oct-2-ene-2-carboxylic acid], the LD50 in “LD50, Probit method” is greater than 1000 mg/kg. Also, the MIC in series [1] was 3.13 µg/mL (≈ 4.21 µM); in series [2], less than 0.05 µg/mL; against Escherichia coli 67, less than 0.05 µg/mL; in series [3], less than 0.05 µg/mL; in series [4] it was 0.78 µg/mL (≈ 1.05 µM).

In the series “LD50, Probit method”, `Cc1cc(SCC2=C(C(=O)O)N3C(=O)[C@@H](NC(=O)/C(=N\OC(C)(C)C(=O)c4ccc(O)c(O)c4)c4csc(N)n4)[C@H]3SC2)n2nc(C(=O)O)nc2n1` [Compound 6, (6R,7R)-7-[2-(2-amino-4-thiazolyl)-2-[Z-[1-(3,4-dihydroxybenzoyl)-1-methylethyl]oxyimino]acetamido]-3-[(2-carboxy-5-methyl-s-triazolo-[1,5-a]pyrimidin-7-yl)thiomethyl]-8-oxo-5-thia-1-azabicyclo[4.2.0]oct-2-ene-2-carboxylicacid] displayed an LD50 greater than 1000 mg/kg. The MIC in series [1] was 0.78 µg/mL (≈ 1.01 µM); in series [2] it was less than 0.05 µg/mL; in the series with Escherichia coli 67, less than 0.05 µg/mL; in series [3], less than 0.05 µg/mL; in series [4], 6.25 µg/mL (≈ 8.12 µM).

Turning to `Cc1cc(SCC2=C(C(=O)O)N3C(=O)[C@@H](NC(=O)/C(=N\O[C@@H](C(=O)O)c4ccc(O)c(O)c4)c4csc(N)n4)[C@H]3SC2)n2nc(C(=O)O)nc2n1` [Compound 10, (6R,7R)-7-[2-(2-amino-4-thiazolyl)-2-[Z-[(R)-carboxy(3,4-dihydroxyphenyl)-methyl]oxyimino]acetamido]-3-[(2-carboxy-5-methyl-s-triazolo[1,5-a]pyrimidin-7-yl)thiomethyl]-8-oxo-5-thia-1-azabicyclo[4.2.0]oct-2-ene-2-carboxylic acid], the MIC in series [1] is 6.25 µg/mL (≈ 8.25 µM); in series [2] it was less than 0.05 µg/mL; against Escherichia coli 67 it was 0.2 µg/mL (≈ 0.264 µM); in series [3] it was 0.1 µg/mL (≈ 0.132 µM); in series [4] it was 0.78 µg/mL (≈ 1.03 µM). In addition, the ED50 in the series with Serratia marcescens 274 came out at 28.6 mg/kg.

For the molecule `CC(=O)Oc1cc(C(=O)O)c(CO/N=C(\C(=O)N[C@@H]2C(=O)N3C(C(=O)O)=C(CSc4cc(C)nc5nc(C(=O)O)nn45)CS[C@H]23)c2csc(N)n2)cc1O` [Compound 5, (6R,7R)-7-[2-(2-amino-4-thiazolyl)-2-[Z-[(4-acetoxy-2-carboxy-5-hydroxyphenyl)-methyl]oxyimino]acetamido]-3-[(2-carboxy-5-methyl-s-triazolo-[1,5-a]pyrimidin-7-yl)thiomethyl]-8-oxo-5-thia-1-azabicyclo[4.2.0]oct-2-ene-2-carboxylic acid], the minimal inhibitory concentration (MIC) in series [1] is 0.2 µg/mL (≈ 0.25 µM); in series [2], less than 0.05 µg/mL; in the series with Escherichia coli 67, less than 0.05 µg/mL; in series [3], less than 0.05 µg/mL; in series [4], 1.56 µg/mL (≈ 1.95 µM).

Regarding `Nc1nc(/C(=N/OC(C(=O)O)c2ccc(O)c(O)c2)C(=O)N[C@@H]2C(=O)N3C(C(=O)[O-])=C(C[n+]4ccccc4)CS[C@H]23)cs1` (stereo partly drawn) [Compound 14, (6R,7R)-7-[2-(2-amino-4-thiazolyl)-2-[Z-[carboxy(3 4-dihydroxyphenyl)methyl]-oxyimino]acetamido]-3-(pyridiniummethyl)-8-oxo-5-thia-l-azabicyclo[4.2.0]oct-2-ene-2-carboxylate], the minimal inhibitory concentration (MIC) in series [1] came to 1.56 µg/mL (≈ 2.49 µM); in series [2], 0.1 µg/mL (≈ 0.16 µM); with Escherichia coli 67 it was 0.39 µg/mL (≈ 0.622 µM); in series [3], 0.39 µg/mL (≈ 0.622 µM); in series [4] it was 0.78 µg/mL (≈ 1.24 µM).

Turning to `CC(=O)Oc1ccc([C@@H](O/N=C(\C(=O)N[C@@H]2C(=O)N3C(C(=O)O)=C(CSc4cc(C)nc5nc(C(=O)O)nn45)CS[C@H]23)c2csc(N)n2)C(=O)O)cc1OC(C)=O` [Compound 8, (6R,7R)-7-[2-(2-amino-4-thiazolyl)-2-[Z-[(R)-carboxy(3,4-diacetoxyphenyl)-methyl]oxyimino]acetamido]-3-[(2-carboxy-5-methyl-s-triazolo[l,5-a]pyrimidin-7-yl)thiomethyl]-8-oxo-5-thia-1-azabicyclo [4.2.0]oct-2-ene-2-carboxyl-acid], the MIC in series [1] was 3.13 µg/mL (≈ 3.72 µM); in series [2], less than 0.05 µg/mL; with Escherichia coli 67, 0.2 µg/mL (≈ 0.238 µM); in series [3], 0.1 µg/mL (≈ 0.119 µM). In the series with Serratia marcescens 274, the ED50 came to 10.5 mg/kg.

For `Nc1nc(/C(=N/O[C@H](C(=O)O)c2ccc(O)c(O)c2)C(=O)N[C@@H]2C(=O)N3C(C(=O)[O-])=C(C[n+]4cccc5c4CCC5)CS[C@H]23)cs1` [Compound 16, (6R,7R)-7-[2-(2-amino-4-thiazolyl)-2-[Z-[(S)-carboxy(3,4-dihydroxyphenyl)methyl]oxyimino]acetamido]-3-(2,3-cyclopentenopyridiniummethyl)-8-oxo-5-thia-1-azabicyclo [4.2.0]oct-2-ene-2-carboxylate], in “LD50, Probit method”, the LD50 is greater than 1000 mg/kg. The MIC in series [1] was 0.39 µg/mL (≈ 0.585 µM); in series [2], less than 0.05 µg/mL; against Escherichia coli 67, 0.1 µg/mL (≈ 0.15 µM); in series [3], 0.1 µg/mL (≈ 0.15 µM); in series [4], 0.78 µg/mL (≈ 1.17 µM).

`Cc1cc(=O)n2nc(SCC3=C(C(=O)O)N4C(=O)[C@@H](NC(=O)/C(=N\OC(=O)c5cc(O)c(O)cc5C)c5csc(N)n5)[C@H]4SC3)sc2n1` [Compound 4]: the LD50 in the series “LD50, Probit method” is greater than 1000 mg/kg. In addition, the MIC is 3.13 µg/mL (≈ 4.28 µM) in series [1]; less than 0.05 µg/mL in series [2]; 0.78 µg/mL (≈ 1.07 µM) against Escherichia coli 67; less than 0.05 µg/mL in series [3]; 0.39 µg/mL (≈ 0.534 µM) in series [4].

Take `Cc1cc(SCC2=C(C(=O)O)N3C(=O)[C@@H](NC(=O)/C(=N\OC(C)(C(=O)O)c4ccc(O)c(O)c4)c4csc(N)n4)[C@H]3SC2)n2nc(C(=O)O)nc2n1` (stereo partly drawn) [Compound 11, (6R,7R)-7-[2-(2-amino-4-thiazolyl)-2-[Z-[1-carboxy-1-(3,4-dihydroxyphenyl)ethyl]oxyimino]acetamido]-3-[(2-carboxy-5-methyl-s-triazolo[1,5-a]pyrimidin-7-yl)thiomethyl]-8-oxo-5-thia-1-azabicyclo[4.2.0]oct-2-ene-2-carboxylic acid]: the MIC in series [1] is 0.78 µg/mL (≈ 1.01 µM); in series [2], less than 0.05 µg/mL; with Escherichia coli 67, less than 0.05 µg/mL; in series [3], 0.2 µg/mL (≈ 0.259 µM); in series [4], 0.78 µg/mL (≈ 1.01 µM).

For `Nc1nc(/C(=N/O[C@H](C(=O)O)c2ccc(O)c(O)c2)C(=O)N[C@@H]2C(=O)N3C(C(=O)[O-])=C(C[n+]4ccccc4)CS[C@H]23)cs1` [Compound 15, (6R,7R)-7-[2-(2-amino-4-thiazolyl)-2-[Z-[(S)-carboxy(3,4-dihydroxyphenyl)methyl]oxyimino]acetamido]-3-(pyridiniummethyl)-8-oxo-5-thia-1-azabicyclo[4.2.0]oct-2-ene-2-carboxylate], in the series “LD50, Probit method”, the LD50 was greater than 1000 mg/kg. Also, the MIC in series [1] was 0.39 µg/mL (≈ 0.622 µM); in series [2] it was less than 0.05 µg/mL; in the series with Escherichia coli 67, 0.1 µg/mL (≈ 0.16 µM); in series [3], 0.1 µg/mL (≈ 0.16 µM); in series [4], 0.78 µg/mL (≈ 1.24 µM).

Turning to `CC(=O)Oc1ccc([C@H](O/N=C(\C(=O)N[C@@H]2C(=O)N3C(C(=O)O)=C(CSc4cc(C)nc5nc(C(=O)O)nn45)CS[C@H]23)c2csc(N)n2)C(=O)O)cc1OC(C)=O` [Compound 7, (6R,7R)-7-[2-(2-amino-4-thiazolyl)-2-[Z-[(S)-carboxy(3,4-diacetoxyphenyl)methyl]oxyimino]acetamido]-3-[(2-carboxy-5-methyl-s-triazolo-[1,5-a]pyrimidin-7-yl)thiomethyl]-8-oxo-5-thia-1-azabicyclo[4.2.0]oct-2-ene-2-carboxylic acid], the MIC in series [1] was 1.56 µg/mL (≈ 1.85 µM); in series [2] it was less than 0.05 µg/mL; against Escherichia coli 67, 0.2 µg/mL (≈ 0.238 µM); in series [3], 0.1 µg/mL (≈ 0.119 µM).
